Legend:
[1] = test system: Serratia marcescens QM B1466 chitinases (total chitinase activity, EC 3.2.1.14) in culture supernatant; assay: Chitinase activity assay with pNP-(NAG)2 in the presence of increasing N-acetyl-D-glucosamine (end-product inhibition); format: biochemical; settings: 40-mM NAG in the assay media, p-nitrophenyl substrate analog, 10 min
Procedure: (§1) FIG. 15a illustrates assays of chitinase (.box-solid.) and chitobiase (.diamond-solid.) in the presence of increasing amounts of N-acetyl-D-glucosamine (NAG). The activity values are expressed as percentage of the initial uninhibited values ([NAG]=0).
Chitinase activity was also determined by using the analog p-nitrophenyl-β-D-N,N'-diacetylchitobiose (pNP-(NAG)2) (Sigma). The assay was performed in triplicate using ELISA plates and contained 50 μL of 100 mM KH2 PO4 buffer containing 1-mM CaCl2 at pH 6.0, 50 μL of pNP(NAG)2 dissolved in nanopure water (400 μg/ml) and 20 μL of enzyme diluted in the same buffer. After 10 minutes of incubation samples were read at 405 nm using an ELISA plate reader. Blanks were used to discount any absorption due to the enzyme or pNP-(NAG)2 alone. The μmoles of p-nitrophenol released by the samples was calculated using a standard curve. Units of enzymatic activity were determined as the number of μmoles of p-nitrophenol released per minute under the assay conditions.
End-product inhibition was tested using p-nitrophenyl substrate-analogs to assay chitinase and chitobiase activities in the presence of increasing concentrations of N-acetyl-D-glucosamine (NAG). The results shown in FIG. 15a indicate that both activities in culture supernatant are inhibited by the end product (NAG). […]

[2] = molecular target: T1, Serratia marcescens QM B1466 chitobiase (EC 3.2.1.29) in culture supernatant (Serratia marcescens, UniProt Q54468); assay: Chitobiase activity assay with pNP-NAG in the presence of N-acetyl-D-glucosamine (end-product inhibition, Eadie-Hofstee analysis); format: biochemical
T1 construct: assaying chitobiase activity in S. marcescens culture supernatant over a wide range of substrate concentrations; endogenous in cells; host or cells: Serratia marcescens QM B1466, grown on chitin; enzyme in culture supernatant, not purified
T1 sequence (Q54468 28-885): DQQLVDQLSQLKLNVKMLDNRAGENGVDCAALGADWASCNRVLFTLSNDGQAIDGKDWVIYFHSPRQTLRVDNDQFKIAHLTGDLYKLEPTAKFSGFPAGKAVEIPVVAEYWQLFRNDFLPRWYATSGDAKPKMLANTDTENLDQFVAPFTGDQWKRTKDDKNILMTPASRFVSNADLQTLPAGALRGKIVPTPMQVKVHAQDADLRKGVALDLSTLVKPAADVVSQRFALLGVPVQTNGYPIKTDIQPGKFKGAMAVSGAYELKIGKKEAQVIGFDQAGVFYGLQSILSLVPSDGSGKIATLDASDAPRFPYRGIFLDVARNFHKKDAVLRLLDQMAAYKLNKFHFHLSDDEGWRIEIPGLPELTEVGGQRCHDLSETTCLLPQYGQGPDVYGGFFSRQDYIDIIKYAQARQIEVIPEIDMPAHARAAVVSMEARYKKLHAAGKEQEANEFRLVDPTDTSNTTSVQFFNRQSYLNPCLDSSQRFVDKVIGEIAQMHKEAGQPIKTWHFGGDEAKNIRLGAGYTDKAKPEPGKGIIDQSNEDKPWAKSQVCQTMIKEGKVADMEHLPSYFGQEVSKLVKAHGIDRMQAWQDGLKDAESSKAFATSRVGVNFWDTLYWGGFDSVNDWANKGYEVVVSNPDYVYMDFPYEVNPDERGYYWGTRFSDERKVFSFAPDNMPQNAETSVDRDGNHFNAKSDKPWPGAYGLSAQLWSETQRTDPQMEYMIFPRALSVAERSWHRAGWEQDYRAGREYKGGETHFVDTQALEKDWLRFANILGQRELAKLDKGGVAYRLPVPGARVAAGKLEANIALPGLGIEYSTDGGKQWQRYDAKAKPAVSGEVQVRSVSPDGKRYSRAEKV
Source text: as §1
FIG. 15b illustrates assays of chitobiase from S. marcescens crude extracts using a range of p-nitrophenyl N-acetyl-β-D-glucosaminide concentrations with or without the addition of a fixed amount of N-acetyl-D-glucosamine (NAG). (.box-solid.) 0.00 mM NAG; (.circle-solid.) 0.21 mM NAG; (Δ) 0.42 mM NAG; (.gradient.) 0.83 mM NAG; and (.diamond-solid.) 1.67 mM NAG.
Chitobiase activity was determined by measuring the amount of p-nitrophenolreleased when an aliquot of enzyme solution (culture supernatant) was incubated with an aqueous solution of p-nitrophenyl-N-acetyl-β-D-glucosamine (pNP-NAG) (Sigma). The buffer used in this assay was 85-mM Tris(hydroxymethylaminomethane)-malate, pH 7.0. […] The liberated p-nitrophenol was spectrophotometrically measured at 405 nm in an ELISA plate reader. […]
The nature of chitobiase inhibition by N-acetyl-D-glucosamine was determined by assaying chitobiase activity in S. marcescens culture supernatant over a wide range of substrate concentrations, with and without the addition of fixed amounts of N-acetyl-D-glucosamine. […]

CC(=O)N[C@H]1C(O)O[C@H](CO)[C@@H](O)[C@@H]1O (stereo partly drawn) [N-acetyl-D-glucosamine, 2-acetamido-2-deoxy-D-glucose]
total chitinase activity lost [1]: 30%
inhibition at 40000 µM ([2]; 10 min, pH 7, 40-mM NAG in the assay media, p-nitrophenyl substrate analog, culture supernatant, read-out: chitobiase activity drop): 70%
Ki ([2]; noncompetitive inhibition, substrate p-nitrophenyl N-acetyl-β-D-glucosaminide, 0-1.67 mM NAG, calculated from Eadie-Hofstee analysis, read-out: inhibition constant Ki): 1 mM

— patent publication US5998173A, “Process for producing N-acetyl-D-glucosamine” (The University of Bristish Columbia, priority 1996, dated 1999)
